For one experiment, the target named is T1, LSD1 (Mus musculus, UniProt Q6ZQ88).
T1 construct: from tissue; host or cells: explanted hearts of C57BL/6 mice
As to the kind of experiment: Cardiac LSD1 activity in explanted hearts at end of treatment (Epigentec kit). Conditions: 1.5 mg / Kg intragastric gavage from 10 days after experimental infarction for three weeks, Figure 1. The format is in vivo, mice. The protocol: The LSD1 inhibitor (1.5 mg / Kg) was administered by intragastric gavage 10 days after experimental infarction and for three weeks. Losartan (5mg/kg) was also administered by oral gavage one week after experimental infarction and for three weeks,
The severity of the infarction was assessed by echocardiography 10 days after surgery. LSD1 activity was measured at the end of treatment (Epigentec kit) in explanted hearts. […] The ventricular wall has thickened when compared to the group treated with losartan Student -t-test ** p≤ 0.001 (Figure 2 B). Left ventricular function has improved. • 2- Ischemia -reperfusion model : transient ligation of descending anterior left coronary (30 min); followed by reperfusion

Experiment [1] concerns C57BL/6 adult mice. Kind of experiment: Permanent infarction model (permanent ligation of descending anterior left coronary, no reperfusion). Type of experiment: in vivo. The protocol:
(§1) Both groups were subjected to experimental infarction. A control group received no treatment. Two myocardial infraction models were used, respectively a permanent infarction model and an ischemia -reperfusion model. The LSD1 inhibitor (1.5 mg / Kg) was administered by intragastric gavage 10 days after experimental infarction and for three weeks. Losartan (5mg/kg) was also administered by oral gavage one week after experimental infarction and for three weeks, • 1: experimental infarctus : • 2.: 10 days later: control echo : pretreatment echo: • 3: posttreatment echo one month later The severity of the infarction was assessed by echocardiography 10 days after surgery. LSD1 activity was measured at the end of treatment ([…] kit) in explanted hearts. […] The ventricular wall has thickened when compared to the group treated with losartan Student -t-test ** p≤ 0.001 (Figure 2 B). Left ventricular function has improved. • 2- Ischemia -reperfusion model : transient ligation of descending anterior left coronary (30 min); followed by reperfusion

Experiment [2] deals with C57BL/6 adult mice. Kind of experiment: Ischemia-reperfusion model (transient ligation of descending anterior left coronary 30 min, then reperfusion). Type of experiment: in vivo. The protocol:
as §1, with “by reperfusion The results were similar in the ischemia / reperfusion model. […] Student -t-test **p≤ 0.001 The shortening fraction (SF) is an index of contractile activity : the contraction of the walls of ventricle is responsible of the shortening of the distance between each wall. This is calculated by dividing the distance between the walls at diastole minus the distance between the walls at systole by the distance between the walls at diastole (in %) Shortening fraction x Volume of chamber = ejection fraction (% of the chamber volume emptied at each contraction)” for “by reperfusion”

SMILES strings stand for the structures.

Take `Cl.Cl.c1ccc([C@@H]2C[C@H]2NC2CCNCC2)cc1` [GSK-LSD1, N-[(1R,2S)-2-phenylcyclopropyl]piperidin-4-amine dihydrochloride]: at LSD1, the “cardiac LSD1 activity” value was “significantly reduced”. Besides, the Left ventricular function result with C57BL/6 adult mice [1] (1.5 mg / Kg gavage, three weeks) is given as “has improved”; with C57BL/6 adult mice [2] (ischemia / reperfusion, M-mode echocardiography, compared to non-treated group and pretreatment, p≤ 0.001, Figure 3 B), “fully restored left ventricular function”. Further, the “left ventricular wall thickness” value with C57BL/6 adult mice [1] (1.5 mg / Kg gavage, three weeks, compared to the group treated with losartan, p≤ 0.001, Figure 2 B) is on record as “has thickened”. Moreover, in the experiment on C57BL/6 adult mice [1] (1.5 mg / Kg intragastric gavage from 10 days after infarction for three weeks, compared to Losartan (5mg/kg), Figure 2 A), the “myocardial fibrosis area (left ventricle : LV)” value is given as “significantly reduced fibrosis”. The “myocardial fibrosis area (LV)” value in the experiment with C57BL/6 adult mice [2] (ischemia / reperfusion, 1.5 mg / Kg gavage, three weeks, compared with the non treated group, p≤ 0.001, Figure 3 A) is given as “prevented fibrosis”. The “shortening fraction (SF)” value in the experiment on C57BL/6 adult mice [2] (post administration, normal SF in healthy mice 60%, post infarct 20%) stood at 60%.

The record behind these values is patent EP3964204A1, “LSD1 INHIBITORS FOR USE IN THE TREATMENT AND PREVENTION OF FIBROSIS OF TISSUES” (Université d'Aix-Marseille, priority 2020, dated 2022).
